Read-outs that look alike come from different tables or passages of the source.
Columns and labels:
CDK16/Cyclin Y = CDK16/Cyclin Y (Homo sapiens, UniProt Q00536); assay: NanoBRET live-cell target engagement, CDK16-NanoLuc/Cyclin Y in HEK-293; type: binding; details: CDK16/Y, 10µM
CDK6/Cyclin D1 = CDK6/Cyclin D1 (Homo sapiens, UniProt Q00534); assay: NanoBRET live-cell target engagement, NanoLuc-CDK6/Cyclin D1 in HEK-293; type: binding; details: CDK6/D1, 10µM
CDK14/Cyclin Y = CDK14/Cyclin Y (Homo sapiens, UniProt O94921); assay: NanoBRET live-cell target engagement, CDK14-NanoLuc/Cyclin Y in HEK-293; type: binding; details: CDK14/Y, 10µM
CDK12/Cyclin K = CDK12/Cyclin K (Homo sapiens, UniProt Q9NYV4); assay: NanoBRET live-cell target engagement, CDK12-NanoLuc/Cyclin K in HEK-293; type: binding; details: CDK12/K, 10µM
CDK10/Cyclin L2 = CDK10/Cyclin L2 (Homo sapiens, UniProt Q15131); assay: NanoBRET live-cell target engagement, CDK10-NanoLuc/Cyclin L2 in HEK-293; details: 10µM
CDK10/Cyclin L2, sequence (Q15131 whole entry): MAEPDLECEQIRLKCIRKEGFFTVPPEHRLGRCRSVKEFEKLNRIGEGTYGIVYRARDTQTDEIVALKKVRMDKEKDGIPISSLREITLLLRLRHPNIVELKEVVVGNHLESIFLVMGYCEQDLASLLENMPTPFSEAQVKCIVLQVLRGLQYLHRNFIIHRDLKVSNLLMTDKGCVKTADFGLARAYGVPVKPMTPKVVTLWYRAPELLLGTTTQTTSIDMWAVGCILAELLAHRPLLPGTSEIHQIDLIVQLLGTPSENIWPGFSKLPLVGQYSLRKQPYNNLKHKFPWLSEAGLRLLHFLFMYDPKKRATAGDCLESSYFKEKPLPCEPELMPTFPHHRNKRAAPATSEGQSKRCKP

CDK5/CDK5R1 = CDK5/CDK5R1 (Homo sapiens, UniProt Q00535); assay: NanoBRET live-cell target engagement, CDK5-NanoLuc/CDK5R1 in HEK-293; type: binding; details: CDK5/CDK5R1, 10µM
CDK15/Cyclin Y = CDK15/Cyclin Y (Homo sapiens, UniProt Q96Q40); assay: NanoBRET live-cell target engagement, NanoLuc-CDK15/Cyclin Y in HEK-293; type: binding; details: CDK15/Y, 10µM
CDK15/Cyclin Y, sequence (Q96Q40 whole entry): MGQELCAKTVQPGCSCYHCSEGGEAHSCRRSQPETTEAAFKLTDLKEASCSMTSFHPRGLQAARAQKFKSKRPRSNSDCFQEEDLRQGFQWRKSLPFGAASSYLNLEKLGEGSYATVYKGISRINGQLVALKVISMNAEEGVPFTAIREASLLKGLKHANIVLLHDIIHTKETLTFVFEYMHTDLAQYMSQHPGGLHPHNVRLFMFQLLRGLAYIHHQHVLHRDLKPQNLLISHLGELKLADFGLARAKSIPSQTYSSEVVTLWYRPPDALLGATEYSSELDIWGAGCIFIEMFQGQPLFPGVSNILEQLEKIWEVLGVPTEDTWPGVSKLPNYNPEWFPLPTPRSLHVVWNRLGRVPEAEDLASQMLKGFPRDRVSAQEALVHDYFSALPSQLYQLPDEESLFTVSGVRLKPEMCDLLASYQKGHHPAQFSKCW
CDK15/Cyclin Y, sequence (Q8ND76 whole entry partner): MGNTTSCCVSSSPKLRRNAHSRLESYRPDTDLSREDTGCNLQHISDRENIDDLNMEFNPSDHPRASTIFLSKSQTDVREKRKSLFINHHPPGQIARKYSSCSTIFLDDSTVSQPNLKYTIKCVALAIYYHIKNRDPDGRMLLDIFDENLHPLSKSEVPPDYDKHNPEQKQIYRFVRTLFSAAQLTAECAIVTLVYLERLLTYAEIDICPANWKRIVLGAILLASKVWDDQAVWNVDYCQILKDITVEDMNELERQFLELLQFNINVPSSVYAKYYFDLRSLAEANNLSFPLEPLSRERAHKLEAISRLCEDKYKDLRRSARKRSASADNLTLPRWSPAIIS

CDK4/Cyclin D1 = CDK4/Cyclin D1 (Homo sapiens, UniProt P11802); assay: NanoBRET live-cell target engagement, NanoLuc-CDK4/Cyclin D1 in HEK-293; type: binding; details: CDK4/D1, 10µM
CDK1/Cyclin E1 = CDK1/Cyclin E1 (Homo sapiens, UniProt P06493); assay: NanoBRET live-cell target engagement, CDK1-NanoLuc/Cyclin E1 in HEK-293; type: binding; details: CDK1/E1, 10µM
CDK1/Cyclin E1, sequence (P06493 whole entry): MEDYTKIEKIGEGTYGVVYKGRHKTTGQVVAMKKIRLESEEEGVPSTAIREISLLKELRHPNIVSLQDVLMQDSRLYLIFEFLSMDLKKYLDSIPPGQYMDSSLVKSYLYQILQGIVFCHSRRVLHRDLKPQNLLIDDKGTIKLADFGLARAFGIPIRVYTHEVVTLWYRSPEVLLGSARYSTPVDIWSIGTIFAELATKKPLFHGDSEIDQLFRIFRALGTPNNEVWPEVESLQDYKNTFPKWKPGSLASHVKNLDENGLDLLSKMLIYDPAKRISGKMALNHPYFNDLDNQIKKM
CDK1/Cyclin E1, sequence (P24864 whole entry partner): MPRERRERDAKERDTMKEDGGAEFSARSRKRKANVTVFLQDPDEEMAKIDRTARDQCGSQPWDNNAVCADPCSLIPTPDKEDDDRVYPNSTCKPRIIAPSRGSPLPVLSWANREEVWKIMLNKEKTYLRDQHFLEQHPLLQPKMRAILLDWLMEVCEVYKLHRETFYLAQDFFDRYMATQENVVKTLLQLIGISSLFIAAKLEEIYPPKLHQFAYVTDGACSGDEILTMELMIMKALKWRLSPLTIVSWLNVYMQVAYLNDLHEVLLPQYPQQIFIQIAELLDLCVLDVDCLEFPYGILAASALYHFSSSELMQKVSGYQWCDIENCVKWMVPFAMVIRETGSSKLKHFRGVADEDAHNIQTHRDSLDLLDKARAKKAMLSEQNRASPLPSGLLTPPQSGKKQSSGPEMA

CDK11B/Cyclin L2 = CDK11B/Cyclin L2 (Homo sapiens, UniProt P21127); assay: NanoBRET live-cell target engagement, CDK11B-NanoLuc/Cyclin L2 in HEK-293; type: binding; details: CDK11b/L2, 10µM
CDK20/Cyclin H = CDK20/Cyclin H (Homo sapiens, UniProt Q8IZL9); assay: NanoBRET live-cell target engagement, NanoLuc-CDK20/Cyclin H in HEK-293; type: binding; details: CDK20/H, 10µM
CDK8/Cyclin C = CDK8/Cyclin C (Homo sapiens, UniProt P49336); assay: NanoBRET live-cell target engagement, NanoLuc-CDK8/Cyclin C in HEK-293; type: binding; details: CDK8/C
CDK8/Cyclin C, sequence (P49336 whole entry): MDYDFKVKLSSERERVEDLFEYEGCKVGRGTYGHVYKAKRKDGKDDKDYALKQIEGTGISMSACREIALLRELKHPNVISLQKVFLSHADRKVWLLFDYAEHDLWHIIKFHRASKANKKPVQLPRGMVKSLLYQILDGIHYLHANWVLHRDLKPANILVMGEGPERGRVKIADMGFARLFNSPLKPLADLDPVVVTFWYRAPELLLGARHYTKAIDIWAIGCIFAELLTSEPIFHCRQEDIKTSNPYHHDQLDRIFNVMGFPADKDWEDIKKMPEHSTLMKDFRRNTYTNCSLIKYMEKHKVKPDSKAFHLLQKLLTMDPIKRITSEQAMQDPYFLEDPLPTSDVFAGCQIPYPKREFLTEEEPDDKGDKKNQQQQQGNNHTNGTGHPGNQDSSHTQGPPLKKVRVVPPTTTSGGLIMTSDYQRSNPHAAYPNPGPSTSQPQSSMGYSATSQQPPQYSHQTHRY
CDK8/Cyclin C, sequence (P24863 whole entry partner): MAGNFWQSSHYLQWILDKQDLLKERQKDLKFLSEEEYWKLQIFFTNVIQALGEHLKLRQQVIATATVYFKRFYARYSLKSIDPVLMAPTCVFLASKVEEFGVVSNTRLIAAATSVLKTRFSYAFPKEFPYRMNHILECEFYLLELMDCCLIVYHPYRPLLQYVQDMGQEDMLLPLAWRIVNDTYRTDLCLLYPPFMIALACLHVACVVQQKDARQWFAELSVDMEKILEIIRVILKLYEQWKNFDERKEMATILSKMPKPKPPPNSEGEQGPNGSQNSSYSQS

CDK13/Cyclin K = CDK13/Cyclin K (Homo sapiens, UniProt Q14004); assay: NanoBRET live-cell target engagement, CDK13-NanoLuc/Cyclin K in HEK-293; type: binding; details: CDK13/K, 10µM
CDK13/Cyclin K, sequence (O75909 whole entry): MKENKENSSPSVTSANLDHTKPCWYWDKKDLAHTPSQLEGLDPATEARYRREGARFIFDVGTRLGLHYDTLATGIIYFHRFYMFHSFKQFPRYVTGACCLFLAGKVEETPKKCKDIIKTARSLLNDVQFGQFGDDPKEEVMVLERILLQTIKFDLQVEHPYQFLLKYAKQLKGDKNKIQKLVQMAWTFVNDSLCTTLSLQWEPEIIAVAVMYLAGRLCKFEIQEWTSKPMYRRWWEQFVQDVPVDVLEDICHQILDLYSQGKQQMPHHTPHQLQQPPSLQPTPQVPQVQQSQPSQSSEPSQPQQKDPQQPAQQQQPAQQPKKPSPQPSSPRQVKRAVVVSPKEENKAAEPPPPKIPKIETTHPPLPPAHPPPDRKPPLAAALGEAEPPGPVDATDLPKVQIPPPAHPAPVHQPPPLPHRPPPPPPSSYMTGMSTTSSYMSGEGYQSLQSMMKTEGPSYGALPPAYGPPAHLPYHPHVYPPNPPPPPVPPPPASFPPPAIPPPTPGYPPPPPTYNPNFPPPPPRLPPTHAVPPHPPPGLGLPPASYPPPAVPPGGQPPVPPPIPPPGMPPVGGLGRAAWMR
CDK13/Cyclin K, sequence (Q14004 other isoform, or with tags, fused parts or gaps): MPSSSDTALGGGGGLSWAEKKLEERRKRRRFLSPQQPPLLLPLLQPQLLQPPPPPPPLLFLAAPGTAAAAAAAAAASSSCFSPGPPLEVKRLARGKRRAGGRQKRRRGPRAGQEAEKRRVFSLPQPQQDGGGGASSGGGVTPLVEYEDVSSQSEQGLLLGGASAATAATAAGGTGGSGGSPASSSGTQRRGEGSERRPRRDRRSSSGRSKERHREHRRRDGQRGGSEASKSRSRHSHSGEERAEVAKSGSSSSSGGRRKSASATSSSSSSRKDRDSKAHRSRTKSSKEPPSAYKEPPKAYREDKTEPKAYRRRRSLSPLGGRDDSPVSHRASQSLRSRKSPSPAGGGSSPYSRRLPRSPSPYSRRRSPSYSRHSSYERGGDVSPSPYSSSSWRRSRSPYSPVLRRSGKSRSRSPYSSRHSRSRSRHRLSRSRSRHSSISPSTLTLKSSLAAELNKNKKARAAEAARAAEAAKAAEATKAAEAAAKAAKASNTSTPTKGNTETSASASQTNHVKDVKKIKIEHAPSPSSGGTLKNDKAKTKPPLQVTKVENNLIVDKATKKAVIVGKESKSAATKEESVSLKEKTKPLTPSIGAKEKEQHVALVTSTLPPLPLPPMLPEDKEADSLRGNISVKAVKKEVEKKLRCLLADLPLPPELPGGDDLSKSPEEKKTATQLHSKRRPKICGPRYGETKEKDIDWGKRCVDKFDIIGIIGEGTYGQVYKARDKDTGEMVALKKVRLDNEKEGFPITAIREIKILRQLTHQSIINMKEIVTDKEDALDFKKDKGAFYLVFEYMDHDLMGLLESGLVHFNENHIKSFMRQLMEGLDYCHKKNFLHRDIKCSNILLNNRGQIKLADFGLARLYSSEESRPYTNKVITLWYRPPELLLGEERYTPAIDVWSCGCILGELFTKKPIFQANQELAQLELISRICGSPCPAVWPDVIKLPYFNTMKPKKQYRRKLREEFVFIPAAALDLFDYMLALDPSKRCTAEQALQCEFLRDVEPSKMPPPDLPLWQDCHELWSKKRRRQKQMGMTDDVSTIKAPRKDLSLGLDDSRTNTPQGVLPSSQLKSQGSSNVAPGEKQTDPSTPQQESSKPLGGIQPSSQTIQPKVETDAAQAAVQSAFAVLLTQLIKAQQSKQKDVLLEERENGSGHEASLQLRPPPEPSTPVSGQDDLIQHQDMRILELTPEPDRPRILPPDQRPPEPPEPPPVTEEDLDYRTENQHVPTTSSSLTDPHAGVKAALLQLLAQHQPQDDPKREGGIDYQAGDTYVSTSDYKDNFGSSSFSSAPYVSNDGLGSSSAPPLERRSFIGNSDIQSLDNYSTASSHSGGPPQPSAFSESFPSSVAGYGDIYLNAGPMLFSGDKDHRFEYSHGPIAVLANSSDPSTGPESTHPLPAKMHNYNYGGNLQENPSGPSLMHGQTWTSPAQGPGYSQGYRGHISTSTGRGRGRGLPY

CDK17/Cyclin Y = CDK17/Cyclin Y (Homo sapiens, UniProt Q00537); assay: NanoBRET live-cell target engagement, CDK17-NanoLuc/Cyclin Y in HEK-293; type: binding; details: CDK17/Y, 10µM
CDK11A/Cyclin L2 = biological target: T1, CDK11A/Cyclin L2 (Homo sapiens, UniProt Q9UQ88); assay: NanoBRET live-cell target engagement, CDK11A-NanoLuc/Cyclin L2 in HEK-293; type: binding; details: CDK11a/L2, 10µM
T1 sequence (Q9UQ88 1-783): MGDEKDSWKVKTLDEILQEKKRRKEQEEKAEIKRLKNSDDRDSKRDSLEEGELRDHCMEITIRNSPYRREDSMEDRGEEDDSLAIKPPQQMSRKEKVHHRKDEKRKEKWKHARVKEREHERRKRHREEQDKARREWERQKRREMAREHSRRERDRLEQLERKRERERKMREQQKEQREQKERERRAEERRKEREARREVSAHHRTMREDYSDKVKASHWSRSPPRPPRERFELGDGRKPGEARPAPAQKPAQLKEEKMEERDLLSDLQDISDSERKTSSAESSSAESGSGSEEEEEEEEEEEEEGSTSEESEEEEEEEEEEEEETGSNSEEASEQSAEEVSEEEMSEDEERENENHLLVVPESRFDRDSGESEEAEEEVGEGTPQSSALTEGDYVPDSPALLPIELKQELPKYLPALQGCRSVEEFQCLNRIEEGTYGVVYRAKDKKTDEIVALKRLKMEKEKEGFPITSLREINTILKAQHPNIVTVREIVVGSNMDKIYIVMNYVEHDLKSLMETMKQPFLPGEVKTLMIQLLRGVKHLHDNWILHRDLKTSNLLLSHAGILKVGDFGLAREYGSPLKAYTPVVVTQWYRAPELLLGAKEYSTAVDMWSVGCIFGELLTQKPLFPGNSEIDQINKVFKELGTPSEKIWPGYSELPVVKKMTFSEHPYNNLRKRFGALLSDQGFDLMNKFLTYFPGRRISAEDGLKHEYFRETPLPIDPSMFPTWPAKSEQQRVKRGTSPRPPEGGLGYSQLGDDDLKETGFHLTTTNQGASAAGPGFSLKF

CDK19/Cyclin C = CDK19/Cyclin C (Homo sapiens, UniProt Q9BWU1); assay: NanoBRET live-cell target engagement, NanoLuc-CDK19/Cyclin C in HEK-293
CDK18/Cyclin Y = CDK18/Cyclin Y (Homo sapiens, UniProt Q07002); assay: NanoBRET live-cell target engagement, CDK18-NanoLuc/Cyclin Y in HEK-293; type: binding; details: CDK18/Y
CDK7 = CDK7 (Homo sapiens, UniProt P50613); assay: NanoBRET live-cell target engagement, NanoLuc-CDK7 in HEK-293; type: binding; details: CDK7, 10µM
CDK7, sequence (P50613 whole entry): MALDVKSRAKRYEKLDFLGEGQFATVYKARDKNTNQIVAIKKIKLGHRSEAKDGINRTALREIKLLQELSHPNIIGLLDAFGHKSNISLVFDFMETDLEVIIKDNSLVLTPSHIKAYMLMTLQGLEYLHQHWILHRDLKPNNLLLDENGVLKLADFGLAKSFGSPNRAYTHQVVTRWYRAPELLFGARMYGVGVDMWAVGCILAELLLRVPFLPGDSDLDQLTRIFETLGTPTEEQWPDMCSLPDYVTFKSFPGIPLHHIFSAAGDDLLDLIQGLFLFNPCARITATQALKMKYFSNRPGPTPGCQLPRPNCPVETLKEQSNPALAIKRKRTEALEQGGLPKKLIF

[1] = read-out: Inhibition at 10µM (%) Replicate 1
[2] = read-out: Inhibition at 10µM (%) Replicate 2
[3] = average of replicates, read-out: Inhibition at 10µM (%) Average
[4] = n=3 average ± SEM, n=2 average to 2 significant figures, read-out: IC50 (nM) Average*
[5] = read-out: IC50 (nM) Replicate 1
[6] = read-out: IC50 (nM) Replicate 2

**Q.** Which results are given for `Cc1ncc(-c2ccnc(Nc3ccc(S(C)(=O)=O)cc3)n2)n1C(C)C` [AZD5438]?
**A.** inhibition at 10 µM (CDK16/Cyclin Y; [1]): 90%; inhibition at 10 µM (CDK16/Cyclin Y; [2]): 89.6%; inhibition at 10 µM (CDK6/Cyclin D1; [3]): 91.2%; inhibition at 10 µM (CDK6/Cyclin D1; [1]): 90.8%; inhibition at 10 µM (CDK6/Cyclin D1; [2]): 91.7%; inhibition at 10 µM (CDK14/Cyclin Y; [3]): 70.3%; inhibition at 10 µM (CDK14/Cyclin Y; [1]): 69.6%; inhibition at 10 µM (CDK14/Cyclin Y; [2]): 71%; inhibition at 10 µM (CDK12/Cyclin K; [3]): 17.1%; inhibition at 10 µM (CDK12/Cyclin K; [1]): 15.7%; inhibition at 10 µM (CDK12/Cyclin K; [2]): 18.5%; inhibition at 10 µM (CDK10/Cyclin L2; read-out: Inhibition at 10µM (%) Average, CDK10/L2, average of replicates): 64.8%; inhibition at 10 µM (CDK10/Cyclin L2; read-out: Inhibition at 10µM (%) Replicate 1, CDK10/L2): 63.3%; inhibition at 10 µM (CDK10/Cyclin L2; read-out: Inhibition at 10µM (%) Replicate 2, CDK10/L2): 66.2%; inhibition at 10 µM (CDK5/CDK5R1; [3]): 90.8%; inhibition at 10 µM (CDK5/CDK5R1; [1]): 87.9%; inhibition at 10 µM (CDK5/CDK5R1; [2]): 93.8%; inhibition at 10 µM (CDK15/Cyclin Y; [3]): 72.1%; inhibition at 10 µM (CDK15/Cyclin Y; [1]): 69.4%; inhibition at 10 µM (CDK15/Cyclin Y; [2]): 74.8%; inhibition at 10 µM (CDK4/Cyclin D1; [3]): 89.9%; inhibition at 10 µM (CDK4/Cyclin D1; [1]): 88.9%; inhibition at 10 µM (CDK4/Cyclin D1; [2]): 90.9%; inhibition at 10 µM (CDK1/Cyclin E1; [3]): 78.5%; inhibition at 10 µM (CDK1/Cyclin E1; [1]): 78.7%; inhibition at 10 µM (CDK1/Cyclin E1; [2]): 78.3%; inhibition at 10 µM (CDK11B/Cyclin L2; [3]): 70.1%; inhibition at 10 µM (CDK11B/Cyclin L2; [1]): 70.5%; inhibition at 10 µM (CDK11B/Cyclin L2; [2]): 69.7%; inhibition at 10 µM (CDK20/Cyclin H; [1]): 22.8%; inhibition at 10 µM (CDK20/Cyclin H; [2]): 25.6%; inhibition at 10 µM (CDK8/Cyclin C; [3]): 90.5%; inhibition at 10 µM (CDK8/Cyclin C; [1]): 94.1%; IC50 (CDK8/Cyclin C; [4]): 200 nM; IC50 (CDK8/Cyclin C; [5]): 330 nM; IC50 (CDK8/Cyclin C; [6]): 79 nM; inhibition at 10 µM (CDK13/Cyclin K; [3]): 15.8%; inhibition at 10 µM (CDK13/Cyclin K; [1]): 21.6%; inhibition at 10 µM (CDK13/Cyclin K; [2]): 10.1%; inhibition at 10 µM (CDK17/Cyclin Y; [3]): 90.7%; inhibition at 10 µM (CDK17/Cyclin Y; [1]): 91.3%; inhibition at 10 µM (CDK17/Cyclin Y; [2]): 90.1%; inhibition at 10 µM (CDK11A/Cyclin L2; [3]): 68.9%; inhibition at 10 µM (CDK11A/Cyclin L2; [1]): 67.5%; inhibition at 10 µM (CDK11A/Cyclin L2; [2]): 70.3%; IC50 (CDK19/Cyclin C; IC50 (nM) Average*, CDK19/Y, n=3 average ± SEM, n=2 average to 2 significant figures): 300 nM; IC50 (CDK19/Cyclin C; IC50 (nM) Replicate 1, CDK19/C): 470 nM; IC50 (CDK19/Cyclin C; IC50 (nM) Replicate 2, CDK19/C): 140 nM; inhibition at 10 µM (CDK19/Cyclin C; read-out: Inhibition at 10µM (%) Average, CDK19/C, average of replicates): 92.8%; inhibition at 10 µM (CDK19/Cyclin C; read-out: Inhibition at 10µM (%) Replicate 1, CDK19/C): 90.6%; inhibition at 10 µM (CDK19/Cyclin C; read-out: Inhibition at 10µM (%) Replicate 2, CDK19/C): 95.1%; inhibition at 10 µM (CDK18/Cyclin Y; [3]): 90%; inhibition at 10 µM (CDK18/Cyclin Y; [1]): 84.4%; inhibition at 10 µM (CDK18/Cyclin Y; [2]): 95.5%; IC50 (CDK18/Cyclin Y; [4]): 670 nM; IC50 (CDK18/Cyclin Y; [5]): 566 nM; IC50 (CDK18/Cyclin Y; [6]): 770 nM; inhibition at 10 µM (CDK7; [3]): 77.1%; inhibition at 10 µM (CDK7; [1]): 71.7%; inhibition at 10 µM (CDK7; [2]): 82.5%

From paper PMC7265341, “Quantifying CDK inhibitor selectivity in live cells” (Nature Communications, 2020)
